Experimental findings from ChEMBL document CHEMBL1201862, “PubChem BioAssay data set” (2004) are described below.

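Assay format: 96-well plates, 48-hour exposure. GI50: concentration for 50% inhibition of growth.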 Calls of active or inactive are those of the source. Cut-off read from the data, not from the text of the source: active = GI50 up to about 1.1 µM and inactive = higher.

Some test systems named below: NCI-H226; NCI-H522; MDA-MB-435; EKVX; RXF 393; NCI-H460; CAKI-1; ACHN; U-251; OVCAR-5; SK-MEL-5; HCC 2998; SK-MEL-2; HCT-116; NCI/ADR-RES; DU-145; UO-31; CCRF-CEM; HOP-92.
Holding throughout (assay): NCI anticancer screen, dose series, 48 h

As to `Cc1ccc(/C=C2/N/C(=N\N=C/c3ccccc3)NC2=O)cc1`, the GI50 in the assay on NCI-H226 was > 100 µM (inactive); in the assay on NCI-H522, 31.8 µM (inactive); in the assay with MDA-MB-435 it was 24.2 µM (inactive); in the assay with EKVX, 43.1 µM (inactive); in the assay with RXF 393 it was 26.5 µM (inactive); in the assay with NCI-H460 it was 31.6 µM (inactive). For the same compound, the GI50 was 38.5 µM (inactive) with CAKI-1; 17.3 µM (inactive) in the assay with ACHN; 26 µM (inactive) with U-251; > 100 µM (inactive) with OVCAR-5; 35 µM (inactive) with SK-MEL-5; 28.9 µM (inactive) with HCC 2998. Moreover, the GI50 in the assay on SK-MEL-2 is 39.4 µM (inactive); in the assay with HCT-116, 28.6 µM (inactive); with NCI/ADR-RES it was 33.3 µM (inactive); in the assay with DU-145, 55.1 µM (inactive); with UO-31, 18.4 µM (inactive).
For the compound `CN(C)CCNC1=Nc2ccccc2C(=S)N2CSCC12` (stereo unspecified), the GI50 with NCI-H226 is > 100 µM (inactive); in the assay on CCRF-CEM, > 100 µM (inactive); in the assay with NCI-H522, > 100 µM (inactive); with MDA-MB-435, > 100 µM (inactive); with EKVX it was > 100 µM (inactive); in the assay on RXF 393, 59.3 µM (inactive). For the same compound, the GI50 with NCI-H460, in the assay on CAKI-1, with ACHN, in the assay with U-251, in the assay on OVCAR-5 and in the assay with SK-MEL-5 was > 100 µM (inactive) each time. In addition, the GI50 is > 100 µM (inactive) in the assay on HCC 2998; > 100 µM (inactive) with SK-MEL-2; > 100 µM (inactive) in the assay on HCT-116; > 100 µM (inactive) in the assay with NCI/ADR-RES; 74.8 µM (inactive) with DU-145; 58.2 µM (inactive) with UO-31.
For the compound `C=CCC1(C(=O)OC)CCC/C(=N\O)C1` (stereo unspecified), the GI50 in the assay with CCRF-CEM, in the assay with NCI-H522, in the assay on HOP-92, in the assay with MDA-MB-435, with CAKI-1 and with ACHN was > 10 µM (inactive) throughout. Also, the GI50 in the assay with U-251, in the assay on SK-MEL-5, in the assay on HCC 2998, in the assay on HCT-116, in the assay on NCI/ADR-RES and in the assay on DU-145 was > 10 µM (inactive) in each case.
As for `O=c1[nH]c(Nc2ccc(Br)c(C(F)(F)F)c2)nc2[nH]cnc12`, the GI50 in the assay with NCI-H226 was 47.5 µM (inactive); in the assay with CCRF-CEM, 43.8 µM (inactive); in the assay with NCI-H522 it was 18.5 µM (inactive); with HOP-92, 26.4 µM (inactive); in the assay with MDA-MB-435, 30.7 µM (inactive); in the assay with EKVX, 80.2 µM (inactive). Besides, the GI50 with NCI-H460 is 45.2 µM (inactive); with CAKI-1 it was 50 µM (inactive); in the assay on ACHN, 43.4 µM (inactive); with U-251, 36.1 µM (inactive); with OVCAR-5, 32.3 µM (inactive); with SK-MEL-5 it was 29.9 µM (inactive). For the same compound, the GI50 in the assay on HCC 2998 is 17.9 µM (inactive); in the assay on SK-MEL-2, 20.2 µM (inactive); with HCT-116 it was 48.4 µM (inactive); in the assay with NCI/ADR-RES, > 100 µM (inactive); with DU-145, 55 µM (inactive); in the assay on UO-31, 43.9 µM (inactive).
For the compound `CCNC(=S)N/N=C1\C(=O)Nc2ccc([N+](=O)[O-])cc21`, the GI50 in the assay with NCI-H226 is 97.7 µM (inactive); in the assay with CCRF-CEM, 7.06 µM (inactive); in the assay with HOP-92, 34 µM (inactive); in the assay with MDA-MB-435 it was 88.1 µM (inactive); in the assay on EKVX it was 50.5 µM (inactive); with RXF 393 it was 26 µM (inactive). For the same compound, the GI50 in the assay on NCI-H460 was 20.4 µM (inactive); in the assay with CAKI-1 it was 11.9 µM (inactive); in the assay with ACHN, 31.2 µM (inactive); in the assay on U-251, 29.5 µM (inactive); in the assay on OVCAR-5 it was > 100 µM (inactive); in the assay with SK-MEL-5 it was 35.1 µM (inactive). Also, the GI50 is 24.9 µM (inactive) with HCC 2998; > 100 µM (inactive) with SK-MEL-2; 27.7 µM (inactive) in the assay on HCT-116; 32.8 µM (inactive) in the assay on NCI/ADR-RES; 33 µM (inactive) in the assay on DU-145; 25.8 µM (inactive) with UO-31.
For `Cc1c(/C=N\NC(=S)NCCNC(=S)N/N=C\c2c(C)n(C)n(-c3ccccc3)c2=O)c(=O)n(-c2ccccc2)n1C`, the GI50 in the assay on NCI-H226 is > 100 µM (inactive); in the assay with HOP-92, > 100 µM (inactive); with MDA-MB-435, 92.5 µM (inactive); in the assay on EKVX, > 100 µM (inactive); in the assay with RXF 393, > 100 µM (inactive); with NCI-H460, > 100 µM (inactive). In addition, the GI50 in the assay on CAKI-1, in the assay on ACHN, in the assay on U-251, with OVCAR-5, in the assay on SK-MEL-5 and in the assay on HCC 2998 was > 100 µM (inactive) in each case. Also, the GI50 with SK-MEL-2 is 22.4 µM (inactive); in the assay with HCT-116 it was > 100 µM (inactive); in the assay on NCI/ADR-RES, > 100 µM (inactive); with DU-145, > 100 µM (inactive); in the assay with UO-31, > 100 µM (inactive).
Regarding `COc1cc2c(cc1OCCCCCCCCN1C(=O)c3cccc4cccc(c34)C1=O)N=C[C@@H]1CCCN1C2=O`, the GI50 was 14.7 µM (inactive) in the assay on NCI-H226; 2.82 µM (inactive) in the assay on CCRF-CEM; 12 µM (inactive) in the assay with NCI-H522; 14.3 µM (inactive) with MDA-MB-435; 2.37 µM (inactive) with EKVX; 12.4 µM (inactive) in the assay on RXF 393. Also, the GI50 with NCI-H460 was 20.7 µM (inactive); in the assay on CAKI-1, 13.3 µM (inactive); with ACHN it was 16 µM (inactive); with U-251, 6.62 µM (inactive); with OVCAR-5, 20.4 µM (inactive); in the assay on SK-MEL-5 it was 12.7 µM (inactive). Moreover, the GI50 with HCC 2998 was 14.2 µM (inactive); with SK-MEL-2, 14.6 µM (inactive); in the assay with HCT-116 it was 19.1 µM (inactive); with NCI/ADR-RES it was 3.27 µM (inactive); in the assay on DU-145, 50.2 µM (inactive); in the assay with UO-31, 17.2 µM (inactive).
Take `O=C(NNc1ccc([N+](=O)[O-])cc1[N+](=O)[O-])/C(O)=C\C(=O)c1ccccc1`: the GI50 was 21.2 µM (inactive) with NCI-H226; 16.9 µM (inactive) in the assay with CCRF-CEM; 25.6 µM (inactive) with NCI-H522; 30.5 µM (inactive) in the assay on MDA-MB-435; 25.2 µM (inactive) in the assay on EKVX; 16.3 µM (inactive) with RXF 393. Further, the GI50 is 19 µM (inactive) with NCI-H460; 21.1 µM (inactive) in the assay on CAKI-1; 23.1 µM (inactive) in the assay on ACHN; 14.9 µM (inactive) in the assay with U-251; 19.7 µM (inactive) in the assay with OVCAR-5; 20.7 µM (inactive) in the assay with SK-MEL-5. Further, the GI50 with HCC 2998 was 16.4 µM (inactive); in the assay with SK-MEL-2, 27.1 µM (inactive); with HCT-116, 14.4 µM (inactive); in the assay with NCI/ADR-RES it was 16.3 µM (inactive); in the assay with DU-145, 16.9 µM (inactive); in the assay with UO-31, 14.3 µM (inactive).
`C#C[C@]1(O)CC[C@H]2[C@@H]3CCC4=C/C(=N/NC(=O)c5cccc6cc7ccccc7nc56)CC[C@@H]4[C@H]3CC[C@@]21CC`: the GI50 is > 100 µM (inactive) in the assay on NCI-H226; 40.5 µM (inactive) in the assay with CCRF-CEM; > 100 µM (inactive) in the assay on HOP-92; 91.4 µM (inactive) with MDA-MB-435; > 100 µM (inactive) in the assay with RXF 393; 36.3 µM (inactive) in the assay on NCI-H460. In addition, the GI50 with CAKI-1 is 29.3 µM (inactive); in the assay with ACHN, > 100 µM (inactive); in the assay on U-251, > 100 µM (inactive); with OVCAR-5 it was 77.3 µM (inactive); in the assay on SK-MEL-5, 21.9 µM (inactive); with HCC 2998, > 100 µM (inactive). The GI50 is > 100 µM (inactive) in the assay on SK-MEL-2, 60.5 µM (inactive) with HCT-116, 58.9 µM (inactive) with NCI/ADR-RES and > 100 µM (inactive) in the assay with DU-145.
Turning to `C/C(=N\N=C(/S)N(C)C)c1cccnn1`, the GI50 in the assay with NCI-H226 was 0.849 µM (active); in the assay on CCRF-CEM, 0.275 µM (active); with NCI-H522, 0.74 µM (active); in the assay with MDA-MB-435, 1.42 µM (inactive); with EKVX, 0.551 µM (active); with RXF 393 it was 0.488 µM (active). Besides, the GI50 was 0.394 µM (active) in the assay with NCI-H460; 0.853 µM (active) in the assay on CAKI-1; 0.0796 µM (active) with ACHN; 0.977 µM (active) in the assay with U-251; 1.06 µM (active) in the assay with OVCAR-5; 0.486 µM (active) in the assay with SK-MEL-5. In addition, the GI50 with HCC 2998 is 7.46 µM (inactive); in the assay on SK-MEL-2, 7.66 µM (inactive); in the assay with HCT-116, 0.369 µM (active); in the assay with NCI/ADR-RES it was 0.521 µM (active); with DU-145, 0.889 µM (active); with UO-31 it was 0.564 µM (active).
On to `O=C1NCC2(CCNCC2)N1`, for which the GI50 in the assay with NCI-H226, with CCRF-CEM, with HOP-92, in the assay with MDA-MB-435, in the assay on EKVX and with RXF 393 was > 100 µM (inactive) throughout. In addition, the GI50 with NCI-H460, with ACHN, in the assay on U-251, in the assay on OVCAR-5, with SK-MEL-5 and with HCC 2998 was > 100 µM (inactive) in each case. For the same compound, the GI50 with HCT-116, in the assay with NCI/ADR-RES, in the assay on DU-145 and in the assay on UO-31 was > 100 µM (inactive) throughout.
